In ChEMBL document CHEMBL6153097, “Design, synthesis, and biological evaluation of Flavokavain B derivatives as potent TRF2 inhibitors for the treatment of Osteosarcoma” (Eur J Med Chem, 2025):
Active and inactive are the calls of the source. No cut-off for these calls is given here.

Assays:
[1] = (§1) Inhibition of TRF2 expression in human U2OS cells at 2 uM measured after 48 hrs by Western blot analysis relative to control; type: functional
[2] = (§2) Inhibition of TRF2 expression in human MG-63 cells at 2 uM measured after 48 hrs by Western blot analysis relative to control; type: functional
MG-63 [3] = assay: as §2; type: functional
U2OS [4] = assay: Antiproliferative activity against human U2OS cells assessed as reduction in cell viability incubated for 48 hrs by MTT assay; type: functional, cell-based
MG-63 [5] = assay: Antiproliferative activity against human MG-63 cells assessed as reduction in cell viability incubated for 48 hrs by MTT assay; type: functional, cell-based; conditions: MG-63, 48 h
[6] = Cytotoxicity against […] MLO-Y4 cells assessed as cell viability incubated for 48 hrs by MTT assay; type: toxicity, cell-based; conditions: mouse
U2OS [7] = assay: as §1; type: functional

Row | IC50 (U2OS [4]) [µM] | Compound | inhibition at 2 µM [1] [%] | inhibition at 2 µM [2] [%] | inhibition (MG-63 [3]) | IC50 (MG-63 [5]) [µM] | IC50 at 48 h [6] [µM] | inhibition (U2OS [7])
1 | – | COc1cc(N2CCOCC2)ccc1C(=O)/C=C/c1cc(Br)cc(Br)c1 | 33.2 | 40.2 | – | – | – | –
2 | – | COc1cc(OCC(=O)O)ccc1C(=O)/C=C/c1cccc(Br)c1 | 52.5 | – | inactive | – | – | –
3 | – | COc1cc(OC)c(C(=O)/C=C/c2cc(Br)cc(Br)c2)c(OC)c1 | 31.1 | 31.4 | – | – | – | –
4 | 32.9 | COc1cc(OCC(=O)O)ccc1C(=O)/C=C/c1cc(Br)cc(Br)c1 | 52 | 34.8 | – | 22.8 | > 100 | –
5 | – | COc1cc(OC)c2c(=O)cc(-c3cccc(Br)c3)oc2c1 | 33.7 | 23.8 | – | – | – | –
6 | 7.87 | COc1ccc(C(=O)/C=C/c2cccc(Br)c2)c(O)c1 | 51.7 | 44.8 | – | 7.11 | 7.93 | –
7 | – | COc1cc(O)c(C(=O)/C=C/c2cc(Cl)ccn2)c(OC)c1 | 32.9 | 41.3 | – | – | – | –
8 | – | COc1cc(O)ccc1C(=O)/C=C/c1cc(Br)cc(Br)c1 | 42.1 | 22.2 | – | – | – | –
9 | – | CCOc1ccc(C(=O)/C=C/c2cccc(Br)c2)c(OCC)c1 | – | 36.1 | – | – | – | inactive
10 | – | CCOc1ccc(C(=O)/C=C/c2cc(Br)cc(Br)c2)c(OCC)c1 | – | 17.1 | – | – | – | inactive
11 | – | COc1cc(OC2CCCOC2)ccc1C(=O)/C=C/c1cc(Br)cc(Br)c1 (stereo not given) | – | 32.2 | – | – | – | inactive
12 | – | COc1cc(N2CCOCC2)ccc1C(=O)/C=C/c1cccc(Br)c1 | 25.1 | 22.7 | – | – | – | –
13 | 8.75 | COc1cc(O)c(C(=O)/C=C/c2cccc(Br)c2)c(OC)c1 | 18.3 | 37.8 | – | 4.34 | 19.6 | –
14 | – | COc1cc(O)c(C(=O)/C=C/c2cc(Br)cc(Br)c2)c(OC)c1 | 13.8 | 22.1 | – | – | – | –
15 | – | COc1cc(OC2CCCOC2)ccc1C(=O)/C=C/c1cccc(Br)c1 (stereo not given) | 31.8 | 23.7 | – | – | – | –
16 | – | CCOC(=O)COc1ccc(C(=O)/C=C/c2cccc(Br)c2)c(OC)c1 | 37.3 | – | inactive | – | – | –
17 | – | O=C(/C=C/c1cc(Br)cc(Br)c1)c1ccc2c(c1)OCCO2 | 36.7 | 37.6 | – | – | – | –
18 | – | COc1ccc(C(=O)/C=C/c2cc(Br)cc(Br)c2)c(OC)c1 | 22.5 | 52.5 | – | – | – | –
19 | 32.8 | COc1ccc(CNC(=O)Nc2ncc([N+](=O)[O-])s2)cc1 | 9.2 | 14.6 | – | 37.8 | > 100 | –
20 | – | COc1cc(O)c(C(=O)CCc2cccc(Br)c2)c(OC)c1 | 34.5 | 32.8 | – | – | – | –
21 | – | COc1cccc(O)c1C(=O)/C=C/c1cccc(Br)c1 | 35 | 40.6 | – | – | – | –
22 | – | COc1cc(O)ccc1C(=O)/C=C/c1cccc(Br)c1 | 9.3 | – | inactive | – | – | –
23 | – | COc1ccc(C(=O)/C=C/c2cccc(Br)c2)c(OC)c1 | 45.4 | 29.6 | – | – | – | –
24 | 13.2 | O=C(/C=C/c1cccc(Br)c1)c1ccc2c(c1)OCCO2 | 39.5 | 48.5 | – | 6.81 | 76.5 | –
25 | – | CCOC(=O)COc1ccc(C(=O)/C=C/c2cc(Br)cc(Br)c2)c(OC)c1 | 39.2 | – | inactive | – | – | –
